Tested on: 186277-243-T-J2-PDC complex spheroid growth
Assay: Anticancer human tumor 186277-243-T-J2-PDC patient-derived colon adenocarcinoma cell line growth inhibition [AhR]
Conditions: for IC50: curve of first compound; for viability, T/C: stronger effect = lower value
Text: Multicellular complex tumor spheroid response to aryl hydrocarbon receptor antagonists in combination with a variety of drugs and investigational agents in selected tumor cell lines
The current study was undertaken to assess response to aryl hydrocarbon receptor antagonists in combination with standard-of-care drugs and investigational agents in solid tumor complex spheroid models. Complex spheroids include a stromal component modeled by human endothelial cells (HUVEC) and fibroblasts modeled by human mesenchymal stem cells (MSCs). The concentration ranges selected for each drug and investigational agent were based upon clinically achievable concentrations if the clinical Cmax of the agent was known.
Compounds. The drugs and investigational agents: BAY 2416964 (NSC825713), GNF351 (NSC835774), CH-223191 (NSC835775), CPI-455 (NSC825282), aza-TdCyd (NSC777586), decitabine (NSC127716), belinostat (NSC758774), entinostat (NSC756642), pevonedistat (NSC761192), tazemetostat (NSC777109), talazoparib (NSC765396), olaparib (NSC753686), selinexor (NSC780203), nedisertib (M3814, NSC802822), bortezomib (NSC756655), venetoclax (NSC766270), doxorubicin (NSC123127), elimusertib (BAY189344, NSC800525), ceralasertib (AZD6738, NSC777638), TAK-243 (NSC785004), alisertib (NSC759677), etoposide (NSC141540), topotecan (NSC609699), eribulin (NSC707389), gemcitabine (NSC613327), carboplatin (NSC241240), cisplatin (NSC119875), and SN-38 (NSC673596) were obtained from the National Cancer Institute (NCI) Developmental Therapeutics Program Chemical Repository (32). The FDA-approved anticancer drug set is available from the Developmental Therapeutics Program at https://dtp.cancer.gov/organization/dscb/obtaining/available plates.htm. […] The stock solutions were prepared in dimethyl sulfoxide (DMSO, Sigma-Aldrich, St. Louis, MO, cat. D2650), except for the platinum compounds which were prepared in saline (Quality Biological, Gaithersburg, MD, cat. 114-055-101), at 800-fold the tested concentration and stored at -70 degrees C prior to their use. All drugs and investigational agents were tested over a range starting from a high concentration at or near the clinical Cmax and decreasing in half-log increments. If the clinical Cmax for an agent had not been determined, the highest concentration tested was 10 microM (Table 1).
Cell Culture. All cells were maintained in an incubator at 37 degrees C and 5% CO2 with 95% humidity. The PDC lines were cultured according to standard operating procedures established by the NCI PDMR (https://pdmr.cancer.gov). Briefly, all PDCs were thawed and cultured in Matrigel-coated flasks prepared with a working solution of 1X Ham's F-12 nutrient mix, without supplementation (Invitrogen, Waltham, MA, cat. 11765054), 100 U/mL penicillin-streptomycin (Invitrogen, cat. 15140122), and 2.5% Matrigel (Corning Inc., Corning, NY, cat. 354248) for the first three passages. All PDCs were cultured in complete DMEM/F-12 media containing advanced DMEM/F-12 (Invitrogen, cat. 12634028), 4.9% defined fetal bovine serum, heat inactivated (HyClone Laboratories Inc., Logan, UT, cat. SH30070.03HI), 389 ng/mL hydrocortisone (Sigma-Aldrich, cat. H4001), 9.7 ng/mL human EGF recombinant protein (Invitrogen, cat. PHG0313), 23.4 microg/mL adenine (Sigma-Aldrich, cat. A2786), 97.3 U/mL penicillin-streptomycin (Invitrogen, cat. 15140122), 1.9 mM L-glutamine (Invitrogen, cat. 25030081), and 9.7 microM Y-27632 dihydrochloride (Tocris Bioscience, Bristol, United Kingdom, cat. 1254). The PDCs were cultured in complete DMEM/F12 media without 10 microM Y-27632 dihydrochloride for at least two passages prior to the screen. The established cell lines NCI-H1341 and […] were cultured in DMEM/F-12, HEPES (Invitrogen, cat. 11330032), 5% defined fetal bovine serum (HyClone Laboratories Inc., cat. SH30070.03), ITS premix universal culture supplement [insulin (5 microg/mL), transferrin (5 microg/mL), and selenious acid (5 ng/mL)] […]

[1] = second compound 0.1 µM, first compound 0.00949 µM
[2] = second compound 0.1 µM, first compound 0.03 µM
[3] = second compound 0.1 µM, first compound 0.0949 µM
[4] = second compound 0.1 µM, first compound 0.3 µM
[5] = second compound 0.1 µM, first compound 0.949 µM
[6] = second compound 0.1 µM, first compound 3 µM
[7] = second compound 0.316 µM, first compound 0.00949 µM
[8] = second compound 0.316 µM, first compound 0.03 µM
[9] = second compound 0.316 µM, first compound 0.0949 µM
[10] = second compound 0.316 µM, first compound 0.3 µM
[11] = second compound 0.316 µM, first compound 0.949 µM
[12] = second compound 0.316 µM, first compound 3 µM
[13] = second compound 1 µM, first compound 0.00949 µM
[14] = second compound 1 µM, first compound 0.03 µM
[15] = second compound 1 µM, first compound 0.0949 µM
[16] = second compound 1 µM, first compound 0.3 µM
[17] = second compound 1 µM, first compound 0.949 µM
[18] = second compound 1 µM, first compound 3 µM
[19] = second compound 3.16 µM, first compound 0.00949 µM
[20] = second compound 3.16 µM, first compound 0.03 µM
[21] = second compound 3.16 µM, first compound 0.0949 µM
[22] = second compound 3.16 µM, first compound 0.3 µM
[23] = second compound 3.16 µM, first compound 0.949 µM
[24] = second compound 3.16 µM, first compound 3 µM
[25] = second compound 10 µM, first compound 0.00949 µM
[26] = second compound 10 µM, first compound 0.03 µM
[27] = second compound 10 µM, first compound 0.0949 µM
[28] = second compound 10 µM, first compound 0.3 µM
[29] = second compound 10 µM, first compound 0.949 µM
[30] = second compound 10 µM, first compound 3 µM
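Also: spheroids exposed to compounds for seven days before the viability read.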
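For viability, T/C in this document: luminescent signal used as a stand-in for viable cell amount; 100% = DMSO vehicle control wells.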

| SMILES | IC50 (second compound 0.1 µM) [nM] | IC50 (second compound 0.316 µM) [nM] | IC50 (second compound 1 µM) [nM] | IC50 (second compound 3.16 µM) [nM] | IC50 (second compound 10 µM) [nM] | viability, T/C [1] [%] | viability, T/C [2] [%] | viability, T/C [3] [%] | viability, T/C [4] [%] | viability, T/C [5] [%] | viability, T/C [6] [%] | viability, T/C [7] [%] | viability, T/C [8] [%] | viability, T/C [9] [%] | viability, T/C [10] [%] | viability, T/C [11] [%] | viability, T/C [12] [%] | viability, T/C [13] [%] | viability, T/C [14] [%] | viability, T/C [15] [%] | other results |
| --- | --- | --- | --- | --- | --- | --- | --- | --- | --- | --- | --- | --- | --- | --- | --- | --- | --- | --- | --- | --- | --- |
| O=C(C=Cn1cnc(-c2cc(C(F)(F)F)cc(C(F)(F)F)c2)n1)NNc1cnccn1 + Cc1cncc(-c2nc(NCCc3c[nH]c4ccccc34)c3ncn(C(C)C)c3n2)c1 | 430 | 456 | 482 | 380 | 40.4 | 103 | 111 | 114 | 67.2 | 13.3 | 4.12 | 110 | 105 | 124 | 73.2 | 13.6 | 4.58 | 109 | 123 | 123 | viability, T/C [16]: 75.2%; viability, T/C [17]: 15.4%; viability, T/C [18]: 5.33%; viability, T/C [19]: 117%; viability, T/C [20]: 116%; viability, T/C [21]: 127%; viability, T/C [22]: 60.1%; viability, T/C [23]: 15.1%; viability, T/C [24]: 6.75%; viability, T/C [25]: 67.5%; viability, T/C [26]: 60.2%; viability, T/C [27]: 21.6%; viability, T/C [28]: 7.78%; viability, T/C [29]: 3.76%; viability, T/C [30]: 3.02% |
| CCN(c1cc(-c2ccc(CN3CCOCC3)cc2)cc(C(=O)NCc2c(C)cc(C)[nH]c2=O)c1C)C1CCOCC1 + Cc1ccccc1N=Nc1ccc(NC(=O)c2ccnn2C)c(C)c1 | > 3000 | > 3000 | > 3000 | > 3000 | > 3000 | 105 | 118 | 112 | 108 | 102 | 102 | 95.7 | 109 | 100 | 105 | 103 | 112 | 104 | 102 | 102 | viability, T/C [16]: 94.5%; viability, T/C [17]: 100%; viability, T/C [18]: 112%; viability, T/C [19]: 91%; viability, T/C [20]: 94.7%; viability, T/C [21]: 99.5%; viability, T/C [22]: 94%; viability, T/C [23]: 107%; viability, T/C [24]: 104%; viability, T/C [25]: 89.9%; viability, T/C [26]: 91.2%; viability, T/C [27]: 86.3%; viability, T/C [28]: 79.8%; viability, T/C [29]: 84.2%; viability, T/C [30]: 93.2% |
